Values after ≈ are worked out from the molar mass of the structure shown. Like-named read-outs stand apart in the source and are kept apart here.
Columns and labels:
[1] = Pharmacokinetic properties in rats (blood concentration by agar well biological assay); parameters: species or system SD rats (male); details: rat, in vivo, iv, 20 mg/kg
Procedure: The pharmacokinetic properties of the compound of the present invention were determined using SD rats (.male.) weighing 230±10 g. Specifically,the test samples were injected into femoral vein in an amount of 20 mg/kg to 4 to 5 test animals. Blood was taken from femoral vein 1, 2.5, 5, 10, 20, 40, 60, 120 and 180 minutes after administration and then subjected to a biological assay using agar well method to measure the blood concentration.

[2] = tested on: Staphylococcus aureus 241; experiment: Minimum inhibitory concentration (agar 2-fold dilution); assay type: cell-based; details: Staphylococcus aureus; S. aureus 241; Muller-Hinton agar, 37° C., 20 hours; read-out: Minimum Inhibitory Concentration
Procedure: (§1) The minimum inhibitory concentration was determined by diluting the test compounds according to 2-fold dilution, suspending them in Muller-Hinton agar medium, inoculating 2 μl of the suspension containing the test strains having 10^7 CFU (Colony Forming Unit) per 1 ml into the medium and then culturing the test strains at 37° C. for 20 hours.

[3] = tested on: Staphylococcus aureus epidermidis 887E; experiment: as above; assay type: cell-based; details: S. aureus epidermidis 887E, Muller-Hinton agar, 37° C., 20 hours, read-out: Minimum Inhibitory Concentration
Procedure: as §1

[4] = tested on: Escherichia coli TEM7 3457E; experiment: as above; assay type: cell-based; details: TEM73457E, 20 h, read-out: Minimum Inhibitory Concentration
Procedure: as §1

[5] = tested on: Escherichia coli TEM3 3455E; experiment: as above; assay type: cell-based; details: TEM33455E, 20 h, read-out: Minimum Inhibitory Concentration
Procedure: as §1

[6] = tested on: Citrobacter diversus 2046E; experiment: as above; assay type: cell-based; details: Citrobacter koseri; C. diversus 2046E; Muller-Hinton agar, 37° C., 20 hours; read-out: Minimum Inhibitory Concentration
Procedure: as §1

[7] = tested on: Enterobacter cloacae IND + VE 1194E; experiment: as above; assay type: cell-based; details: E. cloacae IND + VE 1194E, Muller-Hinton agar, 37° C., 20 hours, read-out: Minimum Inhibitory Concentration
Procedure: as §1

[8] = tested on: Staphylococcus aureus giorgio; experiment: as above; assay type: cell-based; details: S. aureus giorgio, Muller-Hinton agar, 37° C., 20 hours, read-out: Minimum Inhibitory Concentration
Procedure: as §1

Escherichia coli 851E = experiment: as above; assay type: cell-based; details: E. coli 851E, Muller-Hinton agar, 37° C., 20 hours
Procedure: as §1

[9] = tested on: Streptococcus faecalis 29212A; experiment: as above; assay type: cell-based; details: Enterococcus faecalis; S. faecalis 29212A; Muller-Hinton agar, 37° C., 20 hours; read-out: Minimum Inhibitory Concentration
Procedure: as §1

[10] = tested on: Serratia marcescens 1826E; experiment: as above; assay type: cell-based; details: S. marcescens 1826E, Muller-Hinton agar, 37° C., 20 hours, read-out: Minimum Inhibitory Concentration
Procedure: as §1

[11] = tested on: Escherichia coli TEM5 3739E; experiment: as above; assay type: cell-based; details: TEM53739E, 20 h, read-out: Minimum Inhibitory Concentration
Procedure: as §1

[12] = tested on: Klebsiella aerogenes K1 + 1082E; experiment: as above; assay type: cell-based; details: 20 h, read-out: Minimum Inhibitory Concentration
Procedure: as §1

Escherichia coli 3190Y = experiment: as above; assay type: cell-based; details: E. coli 3190Y, Muller-Hinton agar, 37° C., 20 hours, read-out: Minimum Inhibitory Concentration
Procedure: as §1

[13] = tested on: Escherichia coli TEM9 2639E; experiment: as above; assay type: cell-based; details: TEM92639E, 20 h, read-out: Minimum Inhibitory Concentration
Procedure: as §1

Proteus vulgaris 6059A = experiment: as above; assay type: cell-based; details: P. vulgaris 6059A, Muller-Hinton agar, 37° C., 20 hours, read-out: Minimum Inhibitory Concentration
Procedure: as §1

[14] = tested on: Staphylococcus aureus 6538P; experiment: as above; assay type: cell-based; details: read-out: Minimum Inhibitory Concentration
Procedure: as §1

Staphylococcus aureus 77 = experiment: as above; assay type: cell-based; details: read-out: Minimum Inhibitory Concentration
Procedure: as §1

[15] = tested on: Pseudomonas aeruginosa 6065; experiment: as above; assay type: cell-based; details: Pseudomonas aeruginosa; P. aeruginosa 6065; Muller-Hinton agar, 37° C., 20 hours; read-out: Minimum Inhibitory Concentration
Procedure: as §1

[16] = tested on: Pseudomonas aeruginosa 10145; experiment: as above; assay type: cell-based; details: Pseudomonas aeruginosa; P. aeruginosa 10145; Muller-Hinton agar, 37° C., 20 hours; read-out: Minimum Inhibitory Concentration
Procedure: as §1

[17] = tested on: Escherichia coli TEM1 1193E; experiment: as above; assay type: cell-based; details: TEM11193E, 20 h, read-out: Minimum Inhibitory Concentration
Procedure: as §1

[18] = tested on: Pseudomonas aeruginosa 1912E; experiment: as above; assay type: cell-based; details: P. aeruginosa 1912E, Muller-Hinton agar, 37° C., 20 hours, read-out: Minimum Inhibitory Concentration
Procedure: as §1

[19] = tested on: Salmonella typhimurium 14028A; experiment: as above; assay type: cell-based; details: Salmonella enterica; S. typhimurium 14028A; Muller-Hinton agar, 37° C., 20 hours; read-out: Minimum Inhibitory Concentration
Procedure: as §1

Enterobacter cloacae P99 = experiment: as above; assay type: cell-based; details: P99, 20 h, read-out: Minimum Inhibitory Concentration
Procedure: as §1

Escherichia coli 10536 = experiment: as above; assay type: cell-based; details: Escherichia coli; E. coli 10536; Muller-Hinton agar, 37° C., 20 hours; read-out: Minimum Inhibitory Concentration
Procedure: as §1

[20] = tested on: Acinetobacter calcoaceticus 15473A; experiment: as above; assay type: cell-based; details: A. calcoaceticus 15473A, Muller-Hinton agar, 37° C., 20 hours, read-out: Minimum Inhibitory Concentration
Procedure: as §1

[21] = tested on: Klebsiella aerogenes SHV-1 1976E; experiment: as above; assay type: cell-based; details: SHV11976E, K. aerogenes SHV-1 1976E, Muller-Hinton agar, 37° C., 20 hours
Procedure: as §1

[22] = Staphylococcus aureus, S. aureus 77, Muller-Hinton agar, 37° C., 20 hours

| Compound | MIC [2] [µg/mL] | MIC [3] [µg/mL] | MIC [4] [µg/mL] | MIC [5] [µg/mL] | MIC [6] [µg/mL] | MIC [7] [µg/mL] | MIC [8] [µg/mL] | MIC (Escherichia coli 851E) [µg/mL] | MIC [9] [µg/mL] | MIC [10] [µg/mL] | MIC [11] [µg/mL] | MIC [12] [µg/mL] | MIC (Escherichia coli 3190Y) [µg/mL] | MIC [13] [µg/mL] | MIC (Proteus vulgaris 6059A) [µg/mL] | MIC [15] [µg/mL] | MIC [16] [µg/mL] | MIC [17] [µg/mL] | MIC [18] [µg/mL] | MIC [19] [µg/mL] | other results |
| --- | --- | --- | --- | --- | --- | --- | --- | --- | --- | --- | --- | --- | --- | --- | --- | --- | --- | --- | --- | --- | --- |
| Nc1nc(/C(=N/O[C@H](C(=O)O)c2ccc(O)c(O)c2)C(=O)N[C@@H]2C(=O)N3C(C(=O)[O-])=C(/C=C/C[n+]4cnc(N)c5c4CCC5)CS[C@H]23)cs1 [Compound I-3a, 7-[(Z)-2-(2-aminothiazol-4-yl)-2-(α-carboxy-3,4-dihydroxybenzyloxyimino)acetamido]-3-[(E)-3-(4-amino-5,6-cyclopentanopyrimidinium-1-yl)-1-propen-1-yl]-3-cephem-4-carboxylate] | > 128 | 64 (≈ 90.3 µM) | 0.13 (≈ 0.183 µM) | 0.063 (≈ 0.0889 µM) | 0.063 (≈ 0.0889 µM) | 2 | 1 (≈ 1.41 µM) | 0.031 (≈ 0.0437 µM) | 4 (≈ 5.64 µM) | 0.5 (≈ 0.705 µM) | 0.5 (≈ 0.705 µM) | 0.063 (≈ 0.0889 µM) | 0.031 (≈ 0.0437 µM) | 2 (≈ 2.82 µM) | 0.13 (≈ 0.183 µM) | 1 (≈ 1.41 µM) | 0.5 (≈ 0.705 µM) | 0.063 (≈ 0.0889 µM) | 0.5 (≈ 0.705 µM) | 0.031 (≈ 0.0437 µM) | AUC [1]: 36600 ng·h/mL; half-life [1]: 33 min; MIC ([14]; 6538P, 20 h): 1 µg/mL (≈ 1.41 µM); MIC (Staphylococcus aureus 77; [22]): 4 µg/mL (≈ 5.64 µM); MIC (Enterobacter cloacae P99): 16 µg/mL (≈ 22.6 µM); MIC (Escherichia coli 10536): 0.008 µg/mL (≈ 0.0113 µM); MIC [20]: 0.5 µg/mL (≈ 0.705 µM); MIC [21]: 0.13 µg/mL (≈ 0.183 µM) |
| Cc1c(N)nc[n+](C/C=C/C2=C(C(=O)[O-])N3C(=O)[C@@H](NC(=O)/C(=N\O[C@H](C(=O)O)c4ccc(O)c(O)c4)c4csc(N)n4)[C@H]3SC2)c1N [Compound I-4a, 7-[(Z)-2-(2-aminothiazol-4-yl)-2-(α-carboxy-3,4-dihydroxybenzyloxyimino)acetamido]-3-[(E)-3-(4,6-diamino-5-methylpyrimidinium-1-yl)-1-propen-1-yl]-3-cephem-4-carboxylate] | 64 (≈ 91.7 µM) | 16 (≈ 22.9 µM) | 0.25 (≈ 0.358 µM) | 0.25 (≈ 0.358 µM) | 0.13 (≈ 0.186 µM) | 2 | 0.25 (≈ 0.358 µM) | 0.063 (≈ 0.0903 µM) | 4 (≈ 5.73 µM) | 0.25 (≈ 0.358 µM) | 2 (≈ 2.87 µM) | 0.063 (≈ 0.0903 µM) | 0.063 (≈ 0.0903 µM) | 2 (≈ 2.87 µM) | 0.063 (≈ 0.0903 µM) | 1 (≈ 1.43 µM) | 0.5 (≈ 0.717 µM) | 0.063 (≈ 0.0903 µM) | 4 (≈ 5.73 µM) | 0.016 (≈ 0.0229 µM) | AUC [1]: 53100 ng·h/mL; half-life [1]: 53 min; MIC ([14]; S. aureus 6538P, Muller-Hinton agar, 37° C., 20 hours): 0.5 µg/mL (≈ 0.717 µM); MIC (Staphylococcus aureus 77; [22]): 2 µg/mL (≈ 2.87 µM); MIC (Enterobacter cloacae P99): 8 µg/mL (≈ 11.5 µM); MIC (Escherichia coli 10536): 0.008 µg/mL (≈ 0.0115 µM); MIC [20]: 0.5 µg/mL (≈ 0.717 µM); MIC [21]: 0.13 µg/mL (≈ 0.186 µM) |
| Nc1nc(/C(=N/O[C@@H](C(=O)O)c2ccc(O)c(O)c2)C(=O)N[C@@H]2C(=O)N3C(C(=O)[O-])=C(/C=C/C[n+]4cnc(N)c(N)c4N)CS[C@H]23)cs1 [Compound I-5b, 7-[(Z)-2-(2-aminothiazol-4-yl)-2-(α-carboxy-3,4-dihydroxybenzyloxyimino)acetamido]-3-[(E)-3-(4,5,6-triaminopyrimidinium-1-yl)-1-propen-1-yl]-3-cephem-4-carboxylate] | 128 (≈ 183 µM) | 64 (≈ 91.6 µM) | 0.25 (≈ 0.358 µM) | 0.063 (≈ 0.0902 µM) | 4 (≈ 5.72 µM) | 8 | 0.5 (≈ 0.716 µM) | 0.13 (≈ 0.186 µM) | 8 (≈ 11.4 µM) | 2 (≈ 2.86 µM) | 1 (≈ 1.43 µM) | 1 (≈ 1.43 µM) | 0.13 (≈ 0.186 µM) | 1 (≈ 1.43 µM) | 1 (≈ 1.43 µM) | 8 (≈ 11.4 µM) | 2 (≈ 2.86 µM) | 0.25 (≈ 0.358 µM) | 1 (≈ 1.43 µM) | 0.031 (≈ 0.0444 µM) | MIC ([14]; 6538P, 20 h): 0.5 µg/mL (≈ 0.716 µM); MIC (Staphylococcus aureus 77; Staphylococcus aureus, 77, 20 h): 2 µg/mL (≈ 2.86 µM); MIC (Enterobacter cloacae P99): 16 µg/mL (≈ 22.9 µM); MIC (Escherichia coli 10536): 0.13 µg/mL (≈ 0.186 µM); MIC [20]: 1 µg/mL (≈ 1.43 µM); MIC [21]: 1 µg/mL (≈ 1.43 µM) |
